PubChem BioAssay AID1996
In brackets after ≈: the same amount, converted by molar mass.

Settings: buffer; pH 7.4; 200.0 µM

Structure (SMILES)	solubility kinetic [µg/mL]
Cc1cc(C(F)(F)F)nn1CC(=O)N(C)c1ccccc1	> 44.6
Cc1cc(-c2nc3ccccc3c(=O)o2)ccc1[N+](=O)[O-]	< 0.3
COc1ccc(CCC(=O)OCC(=O)c2ccc[nH]2)cc1OC	> 47.6
O=C(CCN1C(=O)C2C3C=CC(C3)C2C1=O)NC1CCCCC1 (centres undefined)	> 47.5
N#C/C(=C(/O)c1ccc(Cl)c([N+](=O)[O-])c1)c1nc2ccccc2[nH]1	0.6 (≈ 1.76 µM)
O=C(Cc1c(F)cccc1Cl)NC1CCN(Cc2ccccc2)CC1	50.5 (≈ 140 µM)
O=S(=O)(Nc1ccccc1Cl)c1ccc(-c2ccccn2)s1	35.8 (≈ 102 µM)
CNCCCN1c2ccccc2CCc2ccccc21.Cl	> 45.4
O=C(COC(=O)c1ccc(Cl)nc1)NCCC1=CCCCC1	36.6 (≈ 113 µM)
COc1ccc(OC)c(/C=C/C(=O)OCC(=O)NCc2ccccc2)c1	15.1 (≈ 42.5 µM)
COc1ccc(Nc2ccc([N+](=O)[O-])c3nonc23)c(OC)c1	< 0.2
O=C(O)c1ccc(N=Nc2c(-c3ccccc3)[nH]oc2=O)cc1	> 46.4
COc1ccc(-c2noc(CN(C)Cc3ccccc3)n2)cc1	5.7 (≈ 18.4 µM)
Cc1ccc(N2C(=O)CC(C)CC2=O)cc1	> 32.6
COc1ccc(NC(=S)NC(=O)c2ccc3c(c2)OCCO3)cc1	2.1 (≈ 6.1 µM)
O=C(Cn1cnc2ccccc21)c1ccc(Cl)cc1	28.9 (≈ 107 µM)
Fc1cccc(NC(=S)N2CCc3ccccc32)c1	6.3 (≈ 23.1 µM)
Cc1ccc(S(=O)(=O)N2CCOCC2)cc1NCC(=O)Nc1ccc(OC(F)(F)F)cc1	3 (≈ 6.34 µM)
CC1(C)Cc2ccccc2-c2nc3n(c(=O)c21)CCCS3	0.9 (≈ 3.02 µM)
CCOc1ccc(NC(=O)NC(C)c2ccc3c(c2)OCO3)cc1 (centres undefined)	1.9 (≈ 5.79 µM)

Structure (SMILES)	solubility kinetic [µg/mL]
Nc1ccc(-c2nc3cc(N)ccc3n2CCO)cc1	> 40.2
O=C(NCCC1=CCCCC1)C(=O)NCCc1ccc(Cl)cc1	< 0.4
CN(C)S(=O)(=O)c1cccc(C(=O)c2nccn2C)c1	41.5 (≈ 141 µM)
CCCNc1ncnc2onc(C)c12	22.5 (≈ 117 µM)
CN(C)C(CNC(=O)CCOc1ccccc1)c1ccco1 (centres undefined)	43 (≈ 142 µM)
Cn1c(SCc2ccccc2)nc2c1c(=O)[nH]c(=O)n2C	7 (≈ 23.2 µM)
CCOC(=O)c1c(C)[nH]c(C)c1C(=O)COC(=O)C1CC(=O)N(CCc2ccccc2)C1 (centres undefined)	> 66.1
CCCCOc1ccc(-c2ncc(N)cn2)cc1	24.2 (≈ 99.5 µM)
CC(=O)c1ccc(N(CC(=O)Nc2cc(C)on2)S(=O)(=O)c2ccc(C)cc2)cc1	6.2 (≈ 14.5 µM)
OCC(O)CN(c1ccccc1)c1ccccc1 (centres undefined)	> 36.5
Cc1ccc2[nH]c(=O)c(CN(C(=O)c3cccc([N+](=O)[O-])c3)C(C)C)cc2c1	2.6 (≈ 6.85 µM)
Cc1cc(C)c(NC(=O)c2ccc3nccnc3c2)c(C)c1	41.5 (≈ 142 µM)
O=C(Nc1ccc(Br)cc1)C1CCCC1	7 (≈ 26.1 µM)
c1ccc(CCCN2CCOCC2)cc1	19.2 (≈ 93.5 µM)
CCOc1cc(C#N)ccc1OCC(=O)N1CCc2ccccc2C1	45.5 (≈ 135 µM)
Cc1cc(C)n2nc(C(=O)OCC(=O)Nc3ccc(C)c(S(=O)(=O)N4CCOCC4)c3)nc2n1	> 73.3
O=C(Nc1cccnc1)c1cc([N+](=O)[O-])ccc1Cl	> 41.7
O=C(Nc1ccncc1)Nc1ccc(Cl)cc1	9.8 (≈ 39.6 µM)
COc1cc(NC(=O)c2cc(C)no2)cc(OC)c1OC	> 43.8
Cc1ccnc2nc(C(=O)NCc3ccccc3)nn12	> 40.1

Structure (SMILES)	solubility kinetic [µg/mL]
O=C(COC(=O)c1ccccc1O)NC1CCCc2ccccc21 (centres undefined)	4.6 (≈ 14.1 µM)
NC(=O)c1ccc(NC(=O)COC(=O)C2COc3ccccc3O2)cc1 (centres undefined)	> 53.5
CCCn1c(N)c(N(CCOC)C(=O)CSc2c(Cl)cccc2Cl)c(=O)[nH]c1=O	53 (≈ 115 µM)
Cc1ccnc(NCc2ccc(Br)cc2)c1	2.3 (≈ 8.3 µM)
O=C(CNC(=O)c1cccs1)c1ccc(Cl)cc1	26.4 (≈ 94.4 µM)
CCOc1ccc(-c2c(=O)n(O)c3ccccc3[n+]2[O-])cc1	> 44.7
Cc1c(C(=O)N2CCCCC2)oc2ccccc12	32 (≈ 132 µM)
O=C(CC(=O)Nc1cccc(F)c1)Nc1cccc(F)c1	9.4 (≈ 32.4 µM)
Cc1oc2ccccc2c1CNC(=O)N(C)C	> 34.8
Cc1c(Cl)c([N+](=O)[O-])nn1CC(=O)NCCCN1CCOCC1	> 51.9
COc1nc(C)cc(C)c1S(=O)(=O)c1ccccc1C	4.8 (≈ 16.5 µM)
COc1ccc(C(=O)C2CCCN(S(=O)(=O)C(C)C)C2)c(C)c1 (centres undefined)	45.4 (≈ 134 µM)
Cc1ccc(Cl)cc1NC(=O)CN1CCOCC1	> 40.3
CC(C(=O)Nc1ccccc1)N(C)CCOc1ccccc1 (centres undefined)	43.7 (≈ 146 µM)
COc1cc(NC(=O)COC(=O)c2cc(S(=O)(=O)N3CCOCC3)ccc2F)cc(OC)c1	34.2 (≈ 70.9 µM)
Cc1cccc(-n2c(C)nc3ccccc3c2=O)c1C	> 39.6
CC(C)C(C(=O)NC1=NCCS1)c1ccc(Cl)cc1 (centres undefined)	1.7 (≈ 5.73 µM)
Cc1cc(C(=O)O)c(C)n1Cc1ccncc1	32.2 (≈ 140 µM)
Cc1cc2c(Nc3ccc(O)cc3)ncnc2s1.Cl	> 44.1
